Assay results: article PMC3826796 (European journal of cancer (Oxford, England : 1990), 2012)
Read-outs that look alike come from different tables or passages of the source. One block for each compound: values may come before it.

Assays:
[1] = cited from earlier work
advanced malignancies = details: cited from earlier work
Phospho-AKT (T308) = details: CLL cells from a subset of patients, post-dose; cited from earlier work
[2] = Plasma pharmacokinetics of SF1126 and hydrolysis products SF1101 and SF1174; assay type: in vivo, human; details: human, in vivo
[3] = background statement, ref not given; cited from earlier work

SMILES: COc1ccc(-c2ccc3ncc4c(c3c2)n(-c2ccc(N3CCNCC3)c(C(F)(F)F)c2)c(=O)n4C)cn1 [BGT226]
- AE profile ([1]; phase I, advanced solid tumours): nausea, vomiting and diarrhoea

SMILES: Nc1cc(C(F)(F)F)c(-c2cc(N3CCOCC3)nc(N3CCOCC3)n2)cn1 [BKM120]
- AEs ([1]; phase I): grade 3 rash, abdominal pain and mood alterations
- Events observed at DLT ([1]; phase I): Two grade 4 hyperglycaemic events
- Patients on study for P8 months (advanced malignancies; phase I): 7
- PR (number of patients) (advanced malignancies; phase I, triple negative breast cancer (KRAS mutated) patient): 1

SMILES: CC[C@H](Nc1ncnc2[nH]cnc12)c1nc2cccc(F)c2c(=O)n1-c1ccccc1 [CAL-101]
- Reduction of Phospho-AKT (T308) (Phospho-AKT (T308)): > 90%
- Patients with durable responses of >6 months (advanced malignancies; refractory non-Hodgkin's lymphoma and chronic lymphocytic leukaemia): 5

SMILES: CS(=O)(=O)N1CCN(Cc2cc3nc(-c4cccc5[nH]ncc45)nc(N4CCOCC4)c3s2)CC1 [GDC-0941]
- Patients with anti-tumour activity (advanced malignancies; phase I, relapsed/refractory solid tumours): 3 of 19

SMILES: C=CCN(/C=C1/C(=O)O[C@H](COC)[C@@]2(C)C1=C(O)C(=O)C1=C2[C@H](OC(C)=O)C[C@]2(C)C(=O)CC[C@@H]12)CC=C [PX-866]
- Grade 3 adverse event [1]: 1 reversible grade 3 transminitis

- Concentrations reached (Cmax versus dose) [2]: 20 to 30 µM
- half-life ([2]; iv): 1 to 2.4 h
SMILES: O=c1cc(N2CCOCC2)oc2c(-c3ccccc3)cccc12 [SF1101, reference compound]
- half-life [3]: short half-life

SMILES: COc1ccc(Cl)c(Nc2nc3ccccc3nc2NS(=O)(=O)c2cccc(NC(=O)C(C)(C)N)c2)c1 [XL147]
- Major DLT [1]: skin rash
- Partial response (advanced malignancies): PR in a NSCLC patient with a confirmed PI3K3CA mutation

SMILES: CCn1c(=O)c(-c2cc[nH]n2)cc2c(C)nc(N)nc21 [XL765]
- Patients on study for ≥16 weeks (advanced malignancies; Phase I, oral): 11
- Patients on study for ≥24 weeks (advanced malignancies; Phase I, oral): 7
